The IC50 is the point on the concentration scale where inhibition reaches its midpoint.

Structures can show the parent of a compound that is named as a salt.

This is an account of results in patent US6855730B2, “3-methylidenyl-2-indolinone modulators of protein kinase” (Sugen, Inc., priority 1998, dated 2005).

In this assay the target is T1, chimeric receptor containing the EGFR extracellular domain and intracellular HER2 kinase domain (Homo sapiens, UniProt P04626).
T1 construct: fused on or other part: EGFR ectodomain + HER2 intracellular part, ATP-site indolinones: HER2's kinase
T1 sequence (P04626 720-1255 limits assumed, change not shown): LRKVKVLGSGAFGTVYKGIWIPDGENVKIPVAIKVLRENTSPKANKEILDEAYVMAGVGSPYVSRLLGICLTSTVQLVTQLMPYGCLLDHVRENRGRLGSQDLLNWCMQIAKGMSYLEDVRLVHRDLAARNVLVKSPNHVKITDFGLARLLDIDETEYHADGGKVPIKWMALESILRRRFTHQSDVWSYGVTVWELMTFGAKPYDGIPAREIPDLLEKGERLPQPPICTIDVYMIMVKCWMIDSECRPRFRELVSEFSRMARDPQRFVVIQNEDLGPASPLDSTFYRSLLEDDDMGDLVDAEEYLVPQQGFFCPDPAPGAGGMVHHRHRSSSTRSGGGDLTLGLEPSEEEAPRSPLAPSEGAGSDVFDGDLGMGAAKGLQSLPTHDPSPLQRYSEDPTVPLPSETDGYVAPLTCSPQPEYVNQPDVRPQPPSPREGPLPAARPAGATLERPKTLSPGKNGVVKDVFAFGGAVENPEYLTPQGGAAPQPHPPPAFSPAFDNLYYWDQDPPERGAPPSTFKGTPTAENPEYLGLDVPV
Briefly: EGF Receptor-HER2 chimeric receptor assay in whole cells (ELISA). Format: cell-based. Particulars: read-out: HER-2 kinase IC50. As for the experimental part:
EGF Receptor-HER2 Chimeric Receptor Assay In Whole Cells.
HER2 kinase activity in whole EGFR-NIH3T3 cells are measured as described below:
• a. […] 05-101 (UBI) (a monoclonal antibody recognizing an EGFR extracellular domain). • c. Anti-phosphotyrosine antibody (anti-Ptyr) (polyclonal) (see, Fendley, et al., supra). • d. Detection antibody: Goat anti-rabbit IgG horseradish peroxidase conjugate, TAGO, Inc., Burlingame, Calif. • e. TBST buffer:
• h. Stock reagents of:
Pre-coat ELISA Plate • 1. […] Coated plates are good for up to 10 days when stored at 4° C. • 2. On day of use, remove coating buffer and replace with 100 μl blocking buffer (5% Carnation Instant Non-Fat Dry Milk in PBS). Incubate the plate, shaking, at room temperature (about 23° C. to 25° C.) for 30 minutes. Just prior to use, remove blocking buffer and wash plate 4 times with TBST buffer.
Seeding Cells • 1. An NIH3T3 cell line overexpressing a chimeric receptor containing the EGFR extracellular domain and intracellular HER2 kinase domain can be used for this assay. • 2. Choose dishes having 80-90% confluence for the experiment. Trypsinize cells and stop reaction by adding 10% fetal bovine serum. Suspend cells in DMEM medium (10% CS DMEM medium) and centrifuge once at 1500 rpm, at room temperature for 5 minutes. • 3. Resuspend cells in seeding medium (DMEM, 0.5% bovine serum), and count the cells using trypan blue. Viability above 90% is acceptable. Seed cells in DMEM medium (0.5% bovine serum) at a density of 10,000 cells per well, 100 μl per well, in a 96 well microtiter plate. Incubate seeded cells in 5% CO2. at 37° C. for about 40 hours.
Assay Procedures • 1. Check seeded cells for contamination using an inverted microscope. Dilute drug stock (10 mg/ml in DMSO) 1:10 in DMEM medium, then transfer 5 μl to a […] well for a final drug dilution of 1:200 and a final DMSO concentration of 1%. Control wells receive DMSO alone. Incubate in 5% CO2 at 37° C. for two hours. • 2. Prepare EGF ligand: dilute stock EGF in DMEM so that upon transfer of 10 μl dilute EGF (1:12 dilution), 100 nM final concentration is attained. • 3. Prepare fresh HNTG* sufficient for 100 μl per well, and place on ice.
• 4. After 120 minutes incubation with drug, add prepared […] ligand to cells, 10 μl per well, to a final concentration of 100 nM. Control wells receive DMEM alone. Incubate with shaking, at room temperature, for 5 minutes. • 5. Remove drug, EGF, and DMEM. Wash cells twice with PBS. Transfer HNTG* to cells, 100 μl per well. Place on ice for 5 minutes. Meanwhile, remove blocking buffer from other ELISA plate and wash with TBST as described above. • 6. With a pipette tip securely fitted to a micropipettor, scrape cells from plate and homogenize cell material by repeatedly aspirating and dispensing the HNTG* lysis buffer. Transfer lysate to a coated, blocked, and washed ELISA plate. Incubate shaking at room temperature for one hour. • 7. Remove lysate and wash 4 times with TBST. Transfer freshly diluted anti-Ptyr antibody to ELISA plate at 100 μl per well. Incubate shaking at room temperature for 30 minutes in the presence of the anti-Ptyr antiserum (1:3000 dilution in TBST). • 8. Remove the anti-Ptyr antibody and wash 4 times with TBST. Transfer the freshly diluted TAGO anti-rabbit IgG antibody to the ELISA plate at 100 μl per well. Incubate shaking at room temperature for 30 minutes (anti-rabbit IgG antibody: 1:3000 dilution in TBST). • 9. Remove TAGO detection antibody and wash 4 times with TBST. Transfer freshly prepared ABTS/H2O2 solution to ELISA plate, 100 μl per well. Incubate shaking at room temperature for 20 minutes. (ABTS/H2O2 solution: 1.0 μl 30% H2O2 in 10 ml ABTS stock). • 10. Stop reaction by adding 50 μl 5N H2SO4 (optional), and determine O.D. at 410 nm. • 11. The maximal phosphotyrosine signal is determined by subtracting the value of the negative controls from the positive controls. […]
Consider `Cc1c(/C=C2\C(=O)Nc3ccc(C(=O)O)cc32)[nH]c2ccccc12` [Example 156, 3-(3-Methyl-1H-indol-2-ylmethylene)-2-oxo-2,3-dihydro-1H-indole-5-carboxylic acid (piperidine salt)], for which the IC50 was greater than 100 µM.

On to `COc1c(C(C)C)cc(/C=C2/C(=O)Nc3cc(O)ccc32)cc1C(C)C` [Example 4, 3-(3,5-Diisopropyl-4-methoxybenzylidene)-6-hydroxy-1,3-dihydroindol-2-one], for which the IC50 was 5.8 µM. As to `COc1ccc(/C=C2/C(=O)Nc3ccc(F)cc32)cc1C1CCCC1` [Example 11, 3-(3-Cyclopentyl-4-methoxybenzylidene)-5-fluoro-1,3-dihydroindol-2-one], the IC50 turned out to be 57.3 µM. For `COc1c(C(C)C)cc(/C=C2/C(=O)Nc3ncccc32)cc1C(C)C` [Example 74, 3-(3,5-Diisopropyl-4-methoxybenzylidene)-1,3-dihydropyrrolo[2,3-b]pyridin-2-one] the value was greater than 100 µM. Take `CC(=O)Nc1ccc2c(c1)NC(=O)/C2=C/c1ccc(OCCN2CCOCC2)c(C(C)(C)C)c1` [Example 55, N-{3-[3-tert-Butyl-4-(2-morpholin-4-ylethoxy)-benzylidene]-2-oxo-2,3-dihydro-1H-indol-6-yl}-acetamide]: the IC50 turned out to be 89.3 µM. `COc1cc(/C=C2/C(=O)Nc3ccccc32)c(-c2ccc3ccccc3c2)cc1OC` [Example 62, 3-(4,5-Dimethoxy-2-naphthalen-2-ylbenzylidene)-1,3-dihydroindol-2-one]: the IC50 is greater than 100 µM. For `CC1(C)CCc2cc(C=C3C(=O)Nc4ccc(Br)cc43)ccc2O1` (racemic) [Example 34, 5-Bromo-3-(2,2-dimethylchroman-6-ylmethylene)-1,3-dihydroindol-2-one] the value was greater than 100 µM. For `CCOc1cccc(-c2cc(C=C3C(=O)Nc4ccccc43)ccc2OC)c1` [Example 46, 3-(3′-Ethoxy-6-methoxybiphenyl-3-ylmethylene)-1,3-dihydroindol-2-one], the IC50 was found to be 59.9 µM. Next, `COc1cc(C)c(C=C2C(=O)Nc3cc(NC(C)=O)ccc32)cc1C(C)C` [Example 27, N-[3-(5-Isopropyl-4-methoxy-2-methyl-benzylidene)-2-oxo-2,3-dihydro-1H-indol-6-yl]-acetamide]: 15.8 µM; `COc1ccc2c(c1)NC(=O)/C2=C/c1ccc(OC)c(-c2ccsc2)c1` [Example 64, 6-Methoxy-3-(4-methoxy-3-thiophen-3-ylbenzylidene)-1,3-dihydroindol-2-one]: greater than 100 µM; `COc1ccc(/C=C2\C(=O)Nc3cccc(C)c32)cc1C1CCCCC1` [Example 68, 3-(3-Cyclohexyl-4-methoxybenzylidene)-4-methyl-1,3-dihydroindol-2-one]: greater than 100 µM. With `CC(C)c1cc(/C=C2/C(=O)Nc3ccc(Cl)cc32)cc(C(C)C)c1OCCN1CCOCC1` [Example 24, 5-chloro-3-[3,5-diisopropyl-4-(2-morpholin-4-ylethoxy)-benzylidene]-1,3-dihydroindol-2-one], the IC50 was 13.6 µM. Regarding `COc1ccc(C=C2C(=O)Nc3ccccc32)cc1-c1cccc(NC(C)=O)c1` [Example 29, N-[2′-Methoxy-5′-(2-oxo-1,2-dihydroindol-3-ylidenemethyl)-biphenyl-3-yl]-acetamide], the IC50 was determined as 17.1 µM. For the compound `COc1cc(C)c(C=C2C(=O)Nc3ccccc32)cc1C(C)C` [Example 8, 3-(5-Isopropyl-4-methoxy-2-methylbenzylidene)-1,3-dihydroindol-2-one], the IC50 was 8.36 µM. In the case of `COc1cc(C)c(C=C2C(=O)Nc3ccc(Cl)cc32)cc1C(C)C` [Example 9, 5-Chloro-3-(5-isopropyl-4-methoxy-2-methylbenzylidene)-1,3-dihydroindol-2-one], the IC50 was greater than 100 µM. As to `CCOc1cccc(-c2cc(OC)c(OC)cc2/C=C2/C(=O)Nc3ccccc32)c1` [Example 58, 3-(3′-Ethoxy-4,5-dimethoxybiphenyl-2-ylmethylene)-1,3-dihydroindol-2-one], the IC50 was greater than 100 µM.
